From patent US20100298141A1, “SUBSTITUTED PYRIDINE N-OXIDE HERBICIDES” (E. I. DU PONT DE NEMOURS AND COMPANY, priority 2007, published 2010)

Legend:
pigweed = test: Test C pre-/postemergence test; format: in vivo, Amaranthus retroflexus; conditions: Preemergence
Summary of the method: (§1)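 Compounds in a non-phytotoxic solvent with surfactant applied preemergence to seeded pots and, at the same time, postemergence to plants 2–18 cm tall (1- to 4-leaf stage). Paddy tests: pots flooded to 3 cm, compound applied into the water, depth held throughout.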

Goosegrass = test: Test C pre-/postemergence test; format: in vivo, Eleusin indica; conditions: Preemergence
Summary of the method: as §1

Italian ryegrass = test: Test C pre-/postemergence test; format: in vivo, Lolium multiflorum; conditions: Preemergence
Summary of the method: as §1

cocklebur = test: Test C pre-/postemergence test; format: in vivo, Xanthium strumarium
Summary of the method: as §1

soybean = test: Test C pre-/postemergence test; format: in vivo, Glycine max; conditions: Preemergence
Summary of the method: as §1

kochia = test: Test C pre-/postemergence test; format: in vivo, Kochia scoparia; conditions: Preemergence
Summary of the method: as §1

giant foxtail = test: Test A pre-/postemergence greenhouse test; format: in vivo, Setaria faberi; conditions: for Foxtail, Giant plant response rating: 0 to 100 scale
Summary of the method: (§2)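 Visual injury ratings, made relative to untreated controls roughly ten days after treatment, cover both preemergence and postemergence application. Compounds in a surfactant-containing non-phytotoxic solvent were sprayed onto the soil surface after sowing and, simultaneously, onto young plants at the one- to two-leaf stage.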

barnyardgrass [1] = test: Test C flooded paddy test; format: in vivo, Echinochloa crus-galli; conditions: Flood
Summary of the method: (§3)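 Ratings were visual and made relative to untreated controls after 13 to 15 greenhouse days.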

lambsquarters = test: Test C pre-/postemergence test; format: in vivo, Chenopodium album; conditions: Preemergence
Summary of the method: as §1

morningglory = test: Test A pre-/postemergence greenhouse test; format: in vivo, Ipomoea spp.; conditions: for Morningglory plant response rating: 0 to 100 scale
Summary of the method: as §2

barnyardgrass [2] = test: Test A pre-/postemergence greenhouse test; format: in vivo, Echinochloa crus-galli; conditions: for Barnyardgrass plant response rating: 0 to 100 scale
Summary of the method: as §2

umbrella sedge = test: Test C flooded paddy test; format: in vivo, Cyperus difformis; conditions: Flood
Summary of the method: as §3

Surinam grass = test: Test C pre-/postemergence test; format: in vivo, Brachiaria decumbens; conditions: Preemergence
Summary of the method: as §1

bermudagrass = test: Test C pre-/postemergence test; format: in vivo, Cynodon dactylon
Summary of the method: as §1

crabgrass [3] = test: Test C pre-/postemergence test; format: in vivo, Digitaria sanguinalis; conditions: Preemergence
Summary of the method: as §1

crabgrass [4] = test: Test A pre-/postemergence greenhouse test; format: in vivo, Digitaria sanguinalis; conditions: for Crabgrass, Large plant response rating: 0 to 100 scale
Summary of the method: as §2

[5] = test system: common (oilseed) sunflower; test: Test C pre-/postemergence test; format: in vivo, Helianthus annuus; conditions: Preemergence
Summary of the method: as §1

[6] = 31 g ai/ha, scale 0 to 100 (0 no effect, 100 complete control)
[7] = Preemergence, 31 g ai/ha, scale 0 to 100 (0 no effect, 100 complete control)
[8] = preemergence, 125 g ai/ha, scale 0 (no effect) to 100 (complete control)
[9] = Postemergence, 125 g ai/ha, 0 is no effect, 100 is complete control
[10] = Postemergence, 500 g ai/ha, 0 is no effect, 100 is complete control
[11] = Preemergence, 125 g ai/ha, 0 no effect, 100 complete control
[12] = Preemergence, 500 g ai/ha, 0 to 100 scale where 0 is no effect and 100 is complete control
[13] = 62 g ai/ha, scale 0 to 100, 0 no effect, 100 complete control, 13 to 15 days
[14] = 125 g ai/ha, scale 0 to 100, 0 no effect, 100 complete control, 13 to 15 days

Cn1nc(C(F)(F)F)c(C[S+]([O-])c2cc(C(C)(C)C)cc[n+]2[O-])c1OC(F)F (racemic) [Compound 24]
0: Ryegrass, Italian plant response rating (Italian ryegrass; 62 g ai/ha, scale 0 to 100) | Plant response rating, Ryegrass, Italian (Italian ryegrass; [6]) | Cocklebur plant response rating (cocklebur; 62 g ai/ha, Preemergence, scale 0 to 100) | Plant response rating, Cocklebur (cocklebur; [7]) | Cocklebur plant response rating (cocklebur; [8]) | Plant response rating, Soybean (soybean; [6]) | Plant response rating, Kochia (kochia; [6]) | Plant response rating, Barnyardgrass (barnyardgrass [1]; [6]) | Crabgrass, Large plant response rating (crabgrass [4]; [9]) | Sunflower plant response rating ([5]; 62 g ai/ha, scale 0 to 100) | Plant response rating, Sunflower [5, 6]
35: Plant response rating, Barnyardgrass (barnyardgrass [1]; 250 g ai/ha, scale 0 to 100 (0 no effect, 100 complete control))
60: Barnyardgrass plant response rating (barnyardgrass [2]; [11]) | Plant response rating, Sedge, Umbrella (umbrella sedge; [6]) | Crabgrass, Large plant response rating (crabgrass [4]; [10])
40: Morningglory plant response rating (morningglory; [9]) | Surinam Grass plant response rating (Surinam grass; 62 g ai/ha, scale 0 to 100)
70: Foxtail, Giant plant response rating (giant foxtail; [10]) | Morningglory plant response rating (morningglory; [11])
20: Plant response rating, Surinam Grass (Surinam grass; [6])
85: Plant response rating, Goosegrass (Goosegrass; [6]) | Soybean plant response rating (soybean; 62 g ai/ha, scale 0 to 100) | Plant response rating, Lambsquarters (lambsquarters; [6]) | Plant response rating, Sedge, Umbrella (umbrella sedge; [13]) | Bermudagrass plant response rating (bermudagrass; 62 g ai/ha, Preemergence, scale 0 to 100 (0 no effect, 100 complete control))
30: Foxtail, Giant plant response rating (giant foxtail; [9]) | Plant response rating, Barnyardgrass (barnyardgrass [1]; [13]) | Plant response rating, Barnyardgrass (barnyardgrass [1]; [14]) | Barnyardgrass plant response rating (barnyardgrass [2]; [9])
5: Kochia plant response rating (kochia; 62 g ai/ha, scale 0 to 100)
100: Pigweed plant response rating (pigweed; 62 g ai/ha, scale 0 to 100) | Plant response rating, Pigweed (pigweed; [6]) | Goosegrass plant response rating (Goosegrass; 62 g ai/ha, scale 0 to 100) | Plant response rating (0 to 100), Goosegrass (Goosegrass; 250 g ai/ha) | Foxtail, Giant plant response rating (giant foxtail; [11]) | Plant response rating, Foxtail, Giant (giant foxtail; [12]) | Lambsquarters plant response rating (lambsquarters; 62 g ai/ha, scale 0 to 100) | Plant response rating, Barnyardgrass (barnyardgrass [2]; [12]) | Plant response rating (0 to 100), Bermudagrass (bermudagrass; Preemergence, 250 g ai/ha) | Bermudagrass plant response rating (bermudagrass; [8]) | Crabgrass, Large plant response rating (crabgrass [3]; 62 g ai/ha, scale 0 to 100) | Plant response rating, Crabgrass, Large (crabgrass [3]; [6]) | Plant response rating (0 to 100), Crabgrass, Large (crabgrass [3]; 250 g ai/ha) | Plant response rating, Crabgrass, Large (crabgrass [4]; [12])
75: Plant response rating, Bermudagrass (bermudagrass; [7])
90: Morningglory plant response rating (morningglory; [10]) | Plant response rating, Morningglory (morningglory; [12]) | Crabgrass, Large plant response rating (crabgrass [4]; [11])
95: Plant response rating, Sedge, Umbrella (umbrella sedge; [14]) | Plant response rating, Sedge, Umbrella (umbrella sedge; 250 g ai/ha, scale 0 to 100, 0 no effect, 100 complete control, 13 to 15 days)
50: Barnyardgrass plant response rating (barnyardgrass [2]; [10])
